Data: ChEMBL document CHEMBL1201862, “PubChem BioAssay data set” (2004)
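Interpolation was linear, between the two tested concentrations surrounding the appropriate level; five concentrations were tested over 48 hours in 96-well plates. GI50 is the concentration that inhibits growth by half.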 The source made the active and inactive calls. Rule as the data show it: active = GI50 up to about 1.1 µM and inactive = higher.

Tests used:
Test in all cases: NCI tumour cell line growth inhibition, 48 h
MDA-N = system: MDA-N
SK-MEL-28 = system: SK-MEL-28
OVCAR-3 = system: OVCAR-3
OVCAR-4 = system: OVCAR-4
IGROV-1 = system: IGROV-1
KM12 = system: KM12
M14 = system: M14
U-251 = system: U-251
NCI-H522 = system: NCI-H522
ACHN = system: ACHN
MCF7 = system: MCF7
OVCAR-8 = system: OVCAR-8
UACC-62 = system: UACC-62
RPMI-8226 = system: RPMI-8226
UO-31 = system: UO-31
HCC 2998 = system: HCC 2998
SW-620 = system: SW-620
A549 = system: A549
MOLT-4 = system: MOLT-4
NCI-H226 = system: NCI-H226

| Structure (SMILES) | GI50 (MDA-N) | GI50 (SK-MEL-28) | GI50 (OVCAR-3) | GI50 (OVCAR-4) | GI50 (IGROV-1) | GI50 (KM12) | GI50 (M14) | GI50 (U-251) | GI50 (NCI-H522) | GI50 (ACHN) | GI50 (MCF7) | GI50 (OVCAR-8) | GI50 (UACC-62) | GI50 (RPMI-8226) | GI50 (UO-31) | GI50 (HCC 2998) | GI50 (SW-620) | GI50 (A549) | GI50 (MOLT-4) | GI50 (NCI-H226) |
| --- | --- | --- | --- | --- | --- | --- | --- | --- | --- | --- | --- | --- | --- | --- | --- | --- | --- | --- | --- | --- |
| CC1(C)O[C@H]2OC(CO)C(OS(C)(=O)=O)[C@H]2O1 (some centres not stated) | > 100 µM (inactive) | > 100 µM (inactive) | > 100 µM (inactive) | > 10 µM (inactive) | > 100 µM (inactive) | > 100 µM (inactive) | > 100 µM (inactive) | > 100 µM (inactive) | 48.1 µM (inactive) | > 100 µM (inactive) | > 100 µM (inactive) | > 100 µM (inactive) | > 100 µM (inactive) | > 100 µM (inactive) | > 100 µM (inactive) | > 100 µM (inactive) | > 100 µM (inactive) | > 100 µM (inactive) |  |  |
| CN(C)N1C(=O)SCC(c2ccccc2)(c2ccccc2)C1=O | > 100 µM (inactive) | > 100 µM (inactive) | > 100 µM (inactive) |  |  | > 100 µM (inactive) | > 100 µM (inactive) | > 100 µM (inactive) | 84.5 µM (inactive) | > 100 µM (inactive) | 54.8 µM (inactive) | > 100 µM (inactive) | 56.8 µM (inactive) | 78 µM (inactive) | > 100 µM (inactive) | > 100 µM (inactive) | > 100 µM (inactive) | 68.2 µM (inactive) | > 100 µM (inactive) | > 100 µM (inactive) |
| Cc1nn(-c2ccccc2)c2c1CC(=O)Nc1ccccc1-2 | 0.187 µM (active) | 0.839 µM (active) | 0.482 µM (active) | 18.5 µM (inactive) | 1.6 µM (inactive) | 0.571 µM (active) | 0.553 µM (active) | 0.743 µM (active) | 0.509 µM (active) | 1.05 µM (active) | 0.372 µM (active) | 2.06 µM (inactive) | 0.521 µM (active) | 0.484 µM (active) | 2.94 µM (inactive) |  | 0.374 µM (active) | 1.61 µM (inactive) | 0.522 µM (active) | 5.01 µM (inactive) |
| C/C(=N/NC(=S)N1CCCCC1)c1cccc(/C(C)=N\NC(=S)N2CCCCC2)n1 | 1.51 µM (inactive) | 2.01 µM (inactive) | 2.21 µM (inactive) |  | 1.94 µM (inactive) | 2.33 µM (inactive) | 1.94 µM (inactive) | 2.04 µM (inactive) | 1.77 µM (inactive) | 1.46 µM (inactive) | 1.86 µM (inactive) | 1.67 µM (inactive) | 2.42 µM (inactive) | 2.3 µM (inactive) | 1.45 µM (inactive) | 2.33 µM (inactive) | 3.15 µM (inactive) | 3 µM (inactive) | 2.4 µM (inactive) | 2.05 µM (inactive) |
| O=C(Cn1ccc(=O)[nH]c1=O)Nc1ccc(C(=O)O)c(O)c1 | > 100 µM (inactive) | > 100 µM (inactive) | > 100 µM (inactive) | > 100 µM (inactive) | > 100 µM (inactive) | > 100 µM (inactive) | > 100 µM (inactive) | > 100 µM (inactive) | > 100 µM (inactive) | > 100 µM (inactive) | > 100 µM (inactive) | > 100 µM (inactive) | > 100 µM (inactive) | > 100 µM (inactive) | > 100 µM (inactive) |  | > 100 µM (inactive) | > 100 µM (inactive) | > 100 µM (inactive) | > 100 µM (inactive) |
| CN(C)CC(NC(NCS)C(=O)NCCNc1ccc(NCCNC(=O)C(NCS)NC(CN(C)C)OCCl)c2c1C(=O)c1c(O)ccc(O)c1C2=O)OCCl (configuration not stated) | 0.267 µM (active) | 0.0229 µM (active) | 0.387 µM (active) | 0.502 µM (active) | 0.145 µM (active) | 0.172 µM (active) | 0.124 µM (active) | 0.102 µM (active) |  | < 0.001 µM (active) | 0.01 µM (active) | 0.00377 µM (active) | 0.0301 µM (active) | 0.0016 µM (active) | 0.0331 µM (active) | 0.237 µM (active) | 0.00461 µM (active) | < 0.001 µM (active) |  | 0.0585 µM (active) |
| COc1cccc(C=C2N=C(c3ccccc3)N(n3c(-c4ccccc4)nc4ccccc4c3=O)C2=O)c1 | 48.3 µM (inactive) | 63.2 µM (inactive) |  |  | 30.1 µM (inactive) | 37.9 µM (inactive) | 45.1 µM (inactive) |  | 18.3 µM (inactive) | 42.3 µM (inactive) | 52 µM (inactive) | 44.5 µM (inactive) | 26.2 µM (inactive) | 40.2 µM (inactive) | 40.1 µM (inactive) | 64.6 µM (inactive) | 74.3 µM (inactive) | 43.7 µM (inactive) | 30.3 µM (inactive) | > 100 µM (inactive) |
| O=C(Nc1ccc2nc(O)n[n+]([O-])c2c1)C(F)(F)F | > 100 µM (inactive) | > 100 µM (inactive) | > 100 µM (inactive) | > 100 µM (inactive) | > 100 µM (inactive) | > 100 µM (inactive) | > 100 µM (inactive) | > 100 µM (inactive) | > 100 µM (inactive) | > 100 µM (inactive) | > 100 µM (inactive) | > 100 µM (inactive) | > 100 µM (inactive) | > 100 µM (inactive) | > 100 µM (inactive) |  | > 100 µM (inactive) | > 100 µM (inactive) | > 100 µM (inactive) | > 100 µM (inactive) |
